Consider eight molecules from patent US20120283216A1, “FUNGICIDAL 2-(BICYCLIC ARYLOXY)CARBOXAMIDES” (priority 2009, published 2012).

Molecules are shown by their SMILES.

Holding throughout (assay type): in vivo
Experiment [1] has as its system Blumeria graminis f. sp. tritici. As to the kind of experiment: Test A: wheat powdery mildew, preventive spray on wheat seedlings, visual disease rating. The conditions noted are these: preventive spray at 40 ppm, rated 8 days after inoculation; for pest or weed control at 40 ppm: Blumeria graminis, 192 h, read-out: Test A disease control rating (100 = 100% disease control, 0 = no disease control relative to the controls). The essentials:
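Wheat seedlings sprayed to run-off with 40 ppm compound (equivalent to 800 g/ha) in acetone/water with 250 ppm surfactant, then dusted with B. graminis spores next day. Held at 20° C. for 8 days before visual rating, 0–100 scale as % disease control relative to controls.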

Experiment [2] relates to Septoria tritici. As to the kind of experiment: Test B: wheat leaf blotch, preventive spray on wheat seedlings, visual disease rating. The conditions noted are these: preventive spray at 40 ppm, rated after 48 h + 19 days; for pest or weed control at 40 ppm: Zymoseptoria tritici, 504 h, read-out: Test B disease control rating (100 = 100% disease control, 0 = no disease control relative to the controls). In short, it runs like this: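 Wheat seedlings were sprayed to run-off with 40 ppm compound (≈800 g/ha) in acetone/water with 250 ppm surfactant, then inoculated with Septoria tritici spores the next day. After 48 h saturated humidity at 20° C and 19 days in a growth chamber at 20° C, disease control was rated visually (0–100% vs controls).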

The subject of experiment [3] is Botrytis cinerea. As to the kind of experiment: Test C: tomato botrytis, preventive spray on tomato seedlings, visual disease rating. The conditions noted are these: preventive spray at 40 ppm, rated after 48 h + 3 days; for pest or weed control at 40 ppm: Botrytis cinerea, 120 h, read-out: Test C disease control rating (100 = 100% disease control, 0 = no disease control relative to the controls). In short, it runs like this:
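Compounds applied at 40 ppm (≈800 g/ha) in acetone/water with surfactant, sprayed to run-off on tomato seedlings. Inoculated next day with B. cinerea spores; 48 h saturated humidity at 20 °C, then 3 days at 27 °C. Visual rating as % disease control versus untreated controls.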

Turning to `CCC(Oc1cnc2ccc(F)cc2c1)C(=O)NC(C)(C)C` (stereo not drawn) [Compound 45], the pest or weed control at 40 ppm in experiment [1] worked out at 84%; in experiment [2] it was 42%; in experiment [3] it was 98%.
In the case of `CCOC(Oc1ccc2ccc(OC)cc2c1)C(=O)NC(C)(C)COC` (stereo not drawn) [Compound 113], in experiment [1], the “Test A disease control rating (100 = 100% disease control, 0 = no disease control relative to the controls)” value is 97%. In addition, the “Test B disease control rating (100 = 100% disease control, 0 = no disease control relative to the controls)” value in experiment [2] worked out at 100%. The “Test C disease control rating (100 = 100% disease control, 0 = no disease control relative to the controls)” value in experiment [3] is 99%.
On the same counts, the results for `C#CC(C)(C)NC(=O)C(OCC)Oc1ccc2ccc(OC)cc2c1` (stereo not drawn) [Compound 115] are 79%, 99% and 97%.
As to `C#Cc1ccc2ccc(OC(OC)C(=O)NC(C)(C)COC)cc2c1` (stereo not drawn) [Compound 106, 2-[(7-ethynyl-2-naphthalenyl)oxy]-2-methoxy-N-(2-methoxy-1,1-dimethylethyl)acetamide], the pest or weed control at 40 ppm in experiment [1] worked out at 100%; in experiment [2], 100%; in experiment [3], 99%.
On to `CCOCC(C)(C)NC(=O)C(CC)Oc1cnc2ccc(I)cc2c1` (stereo not drawn) [Compound 55], for which the “Test A disease control rating (100 = 100% disease control, 0 = no disease control relative to the controls)” value in experiment [1] came to 96%. Moreover, the “Test B disease control rating (100 = 100% disease control, 0 = no disease control relative to the controls)” value in experiment [2] is 99%. The “Test C disease control rating (100 = 100% disease control, 0 = no disease control relative to the controls)” value in experiment [3] is 86%.
`C#CC(C)(C)NC(=O)C(CC)Oc1ccc2ccc(OCC)cc2c1` (stereo not drawn) [Compound 76, N-(1,1-dimethyl-2-propyn-1-yl)-2-[(7-ethoxy-2-naphthalenyl)oxy]butanamide]: the pest or weed control at 40 ppm in experiment [1], in experiment [2] and in experiment [3] was 100% throughout.
In the case of `CCC(Oc1ccc2ccc(SC)cc2c1)C(=O)NC(C)(C)COC` (stereo not drawn) [Compound 91], the “Test A disease control rating (100 = 100% disease control, 0 = no disease control relative to the controls)” value in experiment [1] came to 97%. For the same molecule, the “Test B disease control rating (100 = 100% disease control, 0 = no disease control relative to the controls)” value in experiment [2] is 100%. In experiment [3], the “Test C disease control rating (100 = 100% disease control, 0 = no disease control relative to the controls)” value is listed as 100%.
With `CCC(Oc1ccc2ccc(OC)cc2c1)C(=O)NC(C)(C)COC` (stereo not drawn) [Compound 88], the “Test A disease control rating (100 = 100% disease control, 0 = no disease control relative to the controls)” value in experiment [1] stood at 99%. Also, the “Test B disease control rating (100 = 100% disease control, 0 = no disease control relative to the controls)” value in experiment [2] amounted to 100%. Besides, in experiment [3], the “Test C disease control rating (100 = 100% disease control, 0 = no disease control relative to the controls)” value amounted to 100%.
